# In PMC9883013 (eLife, 2023):
# pEC50, pIC50: −log10 of the molar value. Several values for one entry are separate records, joined by “and”; a condition that tells them apart may be missing. Identical values can stand only once. Entries after “also recorded” stand apart in the source; their conditions may differ. Like-named read-outs stand apart in the source and are kept apart here.
# Tests used:
# [1] = target: T1, SERT (Homo sapiens, UniProt P31645); experiment: Inhibition of [3H]citalopram binding to membranes from HEK293 cells expressing GFP-SERT
# T1 construct: expressed in transfected cells
# Method: Membranes were prepared from HEK293 cells stably expressing GFP-SERT. […] The pellets were resuspended in a buffer containing 20 mM HEPES, 2 mM MgCl2, 1 mm EDTA, pH adjusted to 7.4 with NaOH, subjected to freeze-thaw cycles in liquid nitrogen and sonicated on ice three times for 10 s with 30 s intervals. Following another centrifugation step, the whole-cell membrane pellets were resuspended in buffer and protein concentration was estimated by dye binding (Coomassie Brilliant Blue R-250; Bio-Rad, USA). […] Binding reactions were also done in the presence of 120 mM K^+ buffer (buffer composition: 20 mM Tris-HCl, pH 7.4, 1 mM EDTA, 2 mM MgCl2, 120 mM KCl; 4 mM Na^+ were present from the carry-over of HEPES·NaOH and from Na·EDTA). For binding reactions under these conditions, 7–8 µg of membranes were used to improve the dynamic range of binding. The binding reactions were terminated by harvesting the membranes on glass fiber filters precoated with polyethylenimine and rapid washing with ice-cold wash buffer (10 mM Tris·HCl, pH 7.4, 120 mM NaCl, 2 mM MgCl2). The radioactivity trapped on the filters was quantified by liquid scintillation counting. Nonspecific binding was measured in the presence of 10 µM paroxetine.
# [2] = target: T2, wild-type GFP-tagged human SERT (Homo sapiens, UniProt P31645); experiment: Whole-cell patch clamp recordings of currents through SERT; type: cell-based; conditions: for transient peak current on application of the compound: 100 µM, absence of substrate
# T2 construct: expressed in transfected cells
# Method: HEK293 cells stably expressing wild-type GFP-tagged human SERT were seeded at low density on poly-D-lysine-coated dishes. Twenty hr after seeding, these cells were subjected to patch clamp recordings in the whole-cell configuration. In most instances cells were continuously maintained in an external solution containing 140 mM NaCl, 3 mM KCl, 2.5 mM CaCl2, 2 mM MgCl2, 20 mM glucose, and 10 mM HEPES (pH adjusted to 7.4 with NaOH) and the drugs were diluted therein. The internal solution in the patch pipette contained 133 mM potassium gluconate (CH2OH(CHOH)4COOK), 5.9 mM NaCl, 1 mM CaCl2, 0.7 mM MgCl2, 10 mM HEPES, 10 mM EGTA (pH adjusted to 7.2 with KOH). Drugs were applied using a 4-tube ALA perfusion manifold (NPI Electronic GmbH, Germany) and a DAD-12 superfusion system (Adams & List, Westbury, NY, USA) allowing for complete solution exchange around the cells within 100 ms. Current amplitudes and associated kinetics were quantified using Clampfit 10.2 software. Passive holding currents were subtracted, and the traces were filtered using a 100 Hz digital Gaussian low-pass filter.
# [3] = target: T3, SERT-PG^601,602AA (Homo sapiens, UniProt P31645, G602A/P601A); experiment: Functional rescue (pharmacochaperoning) of folding-deficient SERT mutant, [3H]5-HT uptake after 24 hr preincubation; type: cell-based; conditions: for [3H]5-HT uptake normalized to untreated wild-type SERT: 30 µM for 24 hr, 0.1 µM [3H]5-HT, untreated mutant 14.8 ± 5.3%; for Emax: read-out: EMAX of pharmacochaperoning (rescued uptake, % of transport velocity in cells expressing wild-type SERT)
# T3 construct: expressed in transfected cells; host or cells: HEK293 (ATCC CRL-1573), transient PEI transfection
# [4] = target: T3, SERT-PG^601,602AA; experiment: Immunoblotting of glycosylation state (mature vs core-glycosylated band) of the SERT mutant; type: cell-based
# [5] = system: YFP-tagged human SERT-PG^601,602AA in serotonergic neurons; experiment: Delivery of mutant transporter to the fan-shaped body in transgenic flies fed with drug; type: in vivo, Drosophila melanogaster; conditions: 100 µM in food for 48 hr, 3-day old male flies
# Text: (§1) The transgenic UAS reporter lines for YFP-tagged human wild-type SERT and SERT-PG^601,602AA were generated using the pUAST-attB vector (gift from Drs Bischof and Basler, University of Zürich) and injected into embryos of ZH-86Fb flies (Bloomington stock no. 24749). Positive transformants were isolated and selected. TRH-T2A-Gal4 (Bloomington stock no. 84694) was used to drive the expression of transporters in serotonergic neurons. […] The brains of these flies were then imaged using confocal microscopy. All flies were kept at 25°C, and all crosses were performed at 25°C.
# (§2) Adult fly brains were dissected in PBS and fixed in 2% paraformaldehyde in PBS for 1 hr at room temperature. Brains were then washed three times in 0.1% Triton X-100 in PBS for 20 min on a shaker. Blocking was performed in 10% goat serum for 1 hr at room temperature on a shaker. Brains were then incubated in primary antibody overnight in PBS containing 3% BSA and 0.3% Triton X-100 at 4°C on a shaker. The rabbit polyclonal IgG directed against GFP (1:1000 dilution; A-11122, Invitrogen) and anti-serotonin antibody (S5545, Sigma-Aldrich) were used as primary antibodies. After three washes for 20 min with PBS containing 0.1% Triton X-100, the brains were incubated overnight at 4°C with a secondary antibody in PBS containing 0.3% Triton X-100 on a shaker. […]
# [6] = system: YFP-tagged wild-type human SERT in serotonergic neurons; experiment: Localization of wild-type transporter in the fan-shaped body in transgenic flies fed with drug; type: in vivo, Drosophila melanogaster; conditions: 100 µM in food for 48 hr, flies harboring wild-type human SERT
# Text: as §1, §2
# [7] = target: T2, wild-type GFP-tagged human SERT; experiment: Whole-cell patch clamp recordings of currents through SERT; type: cell-based; conditions: 100 µM pre-applied for 1 s or 3 s in the absence of 5-HT; internal 150 mM NaCl
# [8] = target: T4, wild-type human YFP-tagged SERT (Homo sapiens, UniProt P31645); experiment: Inhibition of SERT-mediated [3H]5-HT uptake in HEK293 cells stably expressing YFP-SERT; type: cell-based; parameters: expressed in transfected cells
# [9] = target: WT-SERT (Homo sapiens, UniProt P31645); experiment: [3H]5-HT uptake by cells transiently expressing WT-SERT after 24 hr preincubation; conditions: 30 µM for 24 hr; 0.1 µM [3H]5-HT
# [10] = target: T4, wild-type human YFP-tagged SERT; experiment: Saturation kinetics (KM, Vmax) of 5-HT uptake by SERT after preincubation with inhibitor
# [11] = system: NCCc1c[nH]c2ccc(O)cc12; experiment: cells, lysate or membranes; conditions: other: absence of any inhibitor; pH 7.4
# [12] = inhibition of 10 µM 5-HT-induced steady current
# [13] = preincubation with 10 µM inhibitor
# [14] = preincubation with 30 µM inhibitor
# [15] = preincubation with 3 µM inhibitor
molecule,measurement,setting,value
"O=CNC(Cc1ccc2c(c1)OCO2)Cc1ccc2c(c1)OCO2 [ECSI#6, N-formyl-1,3-bis (3,4-methylenedioxyphenyl)-prop-2-yl-amine]",fold more potent in displacing [3H]citalopram in 120 mM KCl than in 120 mM NaCl,[1],about 10 fold
same,binding relative to serotonin (Dixon plots),[1]; 1 and 10 µM serotonin,mutually exclusive
same,pIC50,"[1]; IC50(1 µM 5-HT), inhibition of [3H]citalopram binding, 120 mM Na+, 1 µM 5-HT",4.54
same,pIC50,"[1]; IC50(10 µM 5-HT), inhibition of [3H]citalopram binding, 120 mM Na+, 10 µM 5-HT",4.22
same,pIC50,"[1]; IC50(no 5-HT), inhibition of [3H]citalopram binding, 120 mM Na+, 3 nM [3H]citalopram, no 5-HT",4.80
same,pIC50,"[1]; buffer with 120 mM K+, read-out: IC50(120 K+), inhibition of [3H]citalopram binding",5.38 and 5.30
same,pIC50,"[1]; buffer with 120 mM Na+ (Na+/K+ comparison), read-out: IC50(120 Na+), inhibition of [3H]citalopram binding",4.34
same,"affinity estimate, fold lower than the KD of 1 µM required for ToNaS",[1]; presence of 10 µM 5-HT,> 30 fold
same,pIC50,"[2]; 30 µM 5-HT, ECSI#6 co-applied, read-out: IC50 of block of the 5-HT-induced steady current",5.35 and ~5.30
same,effect on 5-HT-induced steady current,[2]; 100 µM in continuous presence of 10 µM 5-HT,complete suppression of the current
same,effect of intracellular application on 5-HT-induced current amplitude,"[2]; 100 µM in the electrode solution, 30 µM 5-HT","only had a modest effect, if any; also recorded: did not cause an appreciable current block"
same,ratio of the second and first pulse (peak 2/peak 1),[2]; 100 µM pre-applied for 1 s or 3 s,always close to one
same,transient peak current on application of the compound,[2],failed to do so
same,koff (y-intercept of kapp vs concentration),[2]; [12],1.7±0.5 s^–1
same,kon (slope of kapp vs concentration),[2]; [12],2.1*10^4±3.5*10^3 M^–1 s^–1
same,[3H]5-HT uptake normalized to untreated wild-type SERT,[3],56.5 ± 5.1%
same,pEC50,"[3]; 24 hr preincubation, read-out: EC50 for pharmacochaperoning (rescued uptake)",5.54
same,Emax,[3],52%
same,pEC50,[4],6.36
same,EMAX of ratio of mature (M) to core-glycosylated band (C),"[4]; 24 hr treatment, densitometry, corrected for Gβ",1.42 AU
same,delivery of the mutant transporter to the presynaptic territory (fan-shaped body),[5],partially restored the delivery of the mutant transporter to the presynaptic territory
same,effect on level of fluorescence in the fan-shaped body,[6],did not have any appreciable effect
same,effect of pre-application on 5-HT-induced peak current amplitude,[7],did not result in the reduction of the peak current amplitude
same,pIC50,"[8]; IC50(0.1), inhibition of [3H]5-HT uptake, 0.1 µM [3H]5-HT, absence of additional unlabeled 5-HT",3.36
same,pIC50,"[8]; IC50(1), inhibition of [3H]5-HT uptake, 0.1 µM [3H]5-HT, presence of 1 µM unlabeled 5-HT",4.13
same,pIC50,"[8]; IC50(3), inhibition of [3H]5-HT uptake, 0.1 µM [3H]5-HT, presence of 3 µM unlabeled 5-HT",4.59
same,pIC50,"[8]; IC50(10), inhibition of [3H]5-HT uptake, 0.1 µM [3H]5-HT, presence of 10 µM unlabeled 5-HT",4.71
same,pIC50,"[8]; low 5-HT concentration (0.1 µM), read-out: IC50 value in the uptake assay",~3.30
same,[3H]5-HT uptake normalized to untreated wild-type SERT,[9],103.3 ± 11.3%
same,mode of inhibition of substrate uptake by SERT,[10],uncompetitive inhibition
same,VMAX of 5-HT transport by SERT,[10]; [13],89.5 pmol min^–1 10^–6 cells
same,VMAX of 5-HT transport by SERT,[10]; [14],49.9 pmol min^–1 10^–6 cells
same,VMAX of 5-HT transport by SERT,[10]; preincubation with 100 µM inhibitor,20.8 pmol min^–1 10^–6 cells
COC(=O)[C@H]1[C@@H](OC(=O)c2ccccc2)C[C@@H]2CC[C@H]1N2C [cocaine],potency in inhibiting [3H]citalopram binding in 120 mM KCl compared with 120 mM NaCl,[1],substantially less potent (by an order of magnitude)
same,"kapp of current inhibition, level at which it leveled off","[2]; 10 µM 5-HT-induced steady current, –60 mV",about 2 s^–1
same,transient peak current on application of the compound,[2],induced transient peak currents
same,effect on SERT species carrying mature glycans,"[4]; 30 µM (saturating concentration), 24 hr",did not cause any appreciable increase
same,[3H]5-HT uptake normalized to untreated wild-type SERT,[9],111.4 ± 4.2%
same,mode of inhibition of substrate uptake by SERT,[10],competitive
same,VMAX of 5-HT transport by SERT,[10]; [15],118.3 pmol min^–1 10^–6 cells
same,VMAX of 5-HT transport by SERT,[10]; [13],121.1 pmol min^–1 10^–6 cells
same,VMAX of 5-HT transport by SERT,[10]; [14],120.1 pmol min^–1 10^–6 cells
"CCC1CC2CC3c4[nH]c5ccc(O)cc5c4CCN(C2)C13 (stereo not drawn) [noribogaine, reference compound]",potency in inhibiting [3H]citalopram binding in 120 mM KCl compared with 120 mM NaCl,[1],distinct binding preference was not obvious
same,transient peak current on application of the compound,[2],induced transient peak currents
same,[3H]5-HT uptake normalized to untreated wild-type SERT,[3],71.9 ± 6.4%
same,Emax,[3],69.5%
same,delivery of the mutant transporter to the presynaptic territory (fan-shaped body),[5],partially restored the delivery of the mutant transporter to the presynaptic territory
same,effect on level of fluorescence in the fan-shaped body,[6],did not have any appreciable effect
same,[3H]5-HT uptake normalized to untreated wild-type SERT,[9],93.5 ± 28.8%
same,mode of inhibition of substrate uptake by SERT,[10],non-competitive
same,VMAX of 5-HT transport by SERT,[10]; preincubation with 1 µM inhibitor,82.4 pmol min^–1 10^–6 cells
same,VMAX of 5-HT transport by SERT,[10]; [15],39.9 pmol min^–1 10^–6 cells
same,VMAX of 5-HT transport by SERT,[10]; [13],19.5 pmol min^–1 10^–6 cells
wild-type human YFP-tagged SERT (Homo sapiens),Km,[11],2.3 µM
